From patent US9073924B2, “Azaindazoles” (GlaxoSmithKline LLC, priority 2011, dated 2015)

Molecular target: T1, EZH2 within the PRC2 complex (Homo sapiens, UniProt Q15910)
T1 construct: FLAG; made in house; host or cells: Sf9 cells
Assay: EZH2 methyltransferase scintillation proximity assay (SPA), PRC2 complex
Type: biochemical
Conditions: inhibition of methyltransferase activity, 3H-SAM, HeLa mononucleosome substrate, foregoing or an analogous assay
Procedure: Compounds contained herein were evaluated for their ability to inhibit the methyltransferase activity of EZH2 within the PRC2 complex. Human PRC2 complex was prepared by co-expressing each of the 5 member proteins (FLAG-EZH2, EED, SUZ12, RbAp48, AEBP2) in Sf9 cells followed by co-purification. Enzyme activity was measured in a scintillation proximity assay (SPA) where a tritiated methyl group is transferred from 3H-SAM to a lysine residue on Histone H3 of a mononucleosome, purified from HeLa cells. Mononucleosomes were captured on SPA beads and the resulting signal is read on a ViewLux plate reader.
Part A. Compound Preparation
Prepare 10 mM stock of compounds from solid in 100% DMSO. • 2. Set up an 11-point serial dilution (1:3 dilution, top concentration 10 mM) in 100% DMSO for each test compound in a 384 well plate leaving columns 6 and 18 for DMSO controls. • 3. Dispense 100 nL of compound from the dilution plate into reaction plates (Grenier Bio-One, 384-well, Cat#784075). Part B. Reagent Preparation Prepare the following solutions: • 1. […] Read plates • 1. Read the assay plates on the Viewlux Plate Reader utilizing the 613 nm emission filter with a 300 s read time. […]
Percent inhibition was calculated relative to the DMSO control for each compound concentration and the resulting values were fit using standard IC50 fitting parameters within the ABASE data fitting software package.

T1 sequence (Q15910 whole entry): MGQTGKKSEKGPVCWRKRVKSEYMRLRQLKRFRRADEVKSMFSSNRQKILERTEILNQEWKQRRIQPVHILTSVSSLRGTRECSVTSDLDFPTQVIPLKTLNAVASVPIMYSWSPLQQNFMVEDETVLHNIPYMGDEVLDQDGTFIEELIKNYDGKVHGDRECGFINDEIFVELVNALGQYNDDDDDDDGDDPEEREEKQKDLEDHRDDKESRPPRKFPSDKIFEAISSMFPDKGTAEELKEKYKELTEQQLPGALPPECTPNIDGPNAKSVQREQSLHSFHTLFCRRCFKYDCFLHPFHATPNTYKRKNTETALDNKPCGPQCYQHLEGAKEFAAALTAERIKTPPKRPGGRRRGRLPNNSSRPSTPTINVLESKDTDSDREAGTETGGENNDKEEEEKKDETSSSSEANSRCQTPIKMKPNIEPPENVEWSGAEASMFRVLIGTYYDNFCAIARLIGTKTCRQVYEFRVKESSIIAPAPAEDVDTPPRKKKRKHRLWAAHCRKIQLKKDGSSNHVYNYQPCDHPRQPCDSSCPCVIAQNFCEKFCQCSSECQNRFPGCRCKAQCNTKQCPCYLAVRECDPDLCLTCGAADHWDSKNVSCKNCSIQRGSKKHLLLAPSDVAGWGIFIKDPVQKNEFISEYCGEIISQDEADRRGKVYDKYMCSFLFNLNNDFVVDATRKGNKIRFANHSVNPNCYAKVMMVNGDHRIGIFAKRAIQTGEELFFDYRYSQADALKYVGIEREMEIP
T1 sequence (O75530 whole entry partner): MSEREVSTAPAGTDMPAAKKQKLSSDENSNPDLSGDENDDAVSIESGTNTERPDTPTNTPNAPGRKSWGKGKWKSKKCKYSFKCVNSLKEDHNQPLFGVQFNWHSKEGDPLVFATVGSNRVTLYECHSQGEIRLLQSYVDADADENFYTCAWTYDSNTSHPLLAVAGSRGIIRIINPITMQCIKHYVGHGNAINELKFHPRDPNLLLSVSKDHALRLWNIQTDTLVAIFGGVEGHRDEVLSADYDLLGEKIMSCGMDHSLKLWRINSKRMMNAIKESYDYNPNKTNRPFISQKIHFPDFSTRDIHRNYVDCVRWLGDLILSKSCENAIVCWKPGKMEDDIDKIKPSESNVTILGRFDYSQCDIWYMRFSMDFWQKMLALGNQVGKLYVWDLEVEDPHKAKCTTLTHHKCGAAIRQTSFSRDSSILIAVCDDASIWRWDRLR
T1 sequence (Q15022 whole entry partner): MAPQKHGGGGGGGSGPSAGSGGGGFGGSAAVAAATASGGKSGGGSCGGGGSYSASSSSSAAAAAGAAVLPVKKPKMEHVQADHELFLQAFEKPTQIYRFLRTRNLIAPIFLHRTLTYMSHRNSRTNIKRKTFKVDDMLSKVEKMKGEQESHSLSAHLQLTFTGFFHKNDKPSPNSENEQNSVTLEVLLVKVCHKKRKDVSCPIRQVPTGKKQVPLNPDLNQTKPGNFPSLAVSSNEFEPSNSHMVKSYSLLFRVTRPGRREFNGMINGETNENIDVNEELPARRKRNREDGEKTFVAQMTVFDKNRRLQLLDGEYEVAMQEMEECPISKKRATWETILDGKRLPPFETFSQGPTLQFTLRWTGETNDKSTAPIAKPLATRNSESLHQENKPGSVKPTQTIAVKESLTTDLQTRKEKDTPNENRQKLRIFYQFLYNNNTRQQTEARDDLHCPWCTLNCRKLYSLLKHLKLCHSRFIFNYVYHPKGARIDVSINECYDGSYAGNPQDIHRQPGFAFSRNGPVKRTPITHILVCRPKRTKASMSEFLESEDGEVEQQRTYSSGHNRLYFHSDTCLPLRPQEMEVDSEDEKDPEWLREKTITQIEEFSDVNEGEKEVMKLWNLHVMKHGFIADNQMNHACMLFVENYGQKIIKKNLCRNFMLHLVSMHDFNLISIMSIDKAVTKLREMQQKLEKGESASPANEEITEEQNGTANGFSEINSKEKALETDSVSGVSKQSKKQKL
T1 sequence (Q09028 whole entry partner): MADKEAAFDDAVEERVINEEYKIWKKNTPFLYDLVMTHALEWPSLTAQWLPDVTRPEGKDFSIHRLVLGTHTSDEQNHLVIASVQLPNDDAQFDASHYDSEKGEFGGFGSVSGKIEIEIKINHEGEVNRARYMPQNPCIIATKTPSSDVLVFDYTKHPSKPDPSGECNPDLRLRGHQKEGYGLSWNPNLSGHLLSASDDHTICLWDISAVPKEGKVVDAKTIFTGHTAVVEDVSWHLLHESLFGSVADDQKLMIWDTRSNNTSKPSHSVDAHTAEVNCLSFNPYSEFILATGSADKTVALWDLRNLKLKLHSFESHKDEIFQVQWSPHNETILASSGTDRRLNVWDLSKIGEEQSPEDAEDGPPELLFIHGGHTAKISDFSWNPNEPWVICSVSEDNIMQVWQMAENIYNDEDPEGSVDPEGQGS
T1 sequence (Q6ZN18 whole entry partner): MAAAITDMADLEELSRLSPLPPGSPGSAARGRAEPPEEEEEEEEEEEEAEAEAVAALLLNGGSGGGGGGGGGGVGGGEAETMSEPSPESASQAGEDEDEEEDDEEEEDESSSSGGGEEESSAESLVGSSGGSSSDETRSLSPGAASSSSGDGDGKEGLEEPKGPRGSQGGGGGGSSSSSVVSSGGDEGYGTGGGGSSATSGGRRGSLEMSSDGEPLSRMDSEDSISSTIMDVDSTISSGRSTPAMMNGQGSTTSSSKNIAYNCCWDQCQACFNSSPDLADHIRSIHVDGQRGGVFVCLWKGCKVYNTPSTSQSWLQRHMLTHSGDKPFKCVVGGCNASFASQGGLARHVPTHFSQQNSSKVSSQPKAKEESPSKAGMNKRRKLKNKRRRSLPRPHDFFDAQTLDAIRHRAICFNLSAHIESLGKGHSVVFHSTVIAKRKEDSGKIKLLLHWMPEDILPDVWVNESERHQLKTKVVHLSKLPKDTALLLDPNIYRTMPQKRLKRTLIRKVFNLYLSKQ

| Substance | IC50 [nM] |
| --- | --- |
| 6-{[4-(Aminocarbonyl)phenyl]amino}-N-[(4,6-dimethyl-2-oxo-1,2-dihydro-3-pyridinyl)methyl]-1-(1-methylethyl)-1H-pyrazolo[3,4-b]pyridine-4-carboxamide [Ex 86] | 142 |
| N-[(4,6-Dimethyl-2-oxo-1,2-dihydro-3-pyridinyl)methyl]-1-(1-methylethyl)-6-(2-phenylethyl)-1H-pyrazolo[3,4-b]pyridine-4-carboxamide [Ex 32] | 856 |
